Results on 26 compounds are retold here after patent publication US20230009608A1, “GRK2 INHIBITORS AND USES THEREOF” (Cygnal Therapeutics, Inc., priority 2020, published 2023).

For one experiment, the target named is T1, GRK2 (Homo sapiens, UniProt P25098).
T1 construct: purchased SignalChem A14-10G
T1 sequence (P25098 1-689): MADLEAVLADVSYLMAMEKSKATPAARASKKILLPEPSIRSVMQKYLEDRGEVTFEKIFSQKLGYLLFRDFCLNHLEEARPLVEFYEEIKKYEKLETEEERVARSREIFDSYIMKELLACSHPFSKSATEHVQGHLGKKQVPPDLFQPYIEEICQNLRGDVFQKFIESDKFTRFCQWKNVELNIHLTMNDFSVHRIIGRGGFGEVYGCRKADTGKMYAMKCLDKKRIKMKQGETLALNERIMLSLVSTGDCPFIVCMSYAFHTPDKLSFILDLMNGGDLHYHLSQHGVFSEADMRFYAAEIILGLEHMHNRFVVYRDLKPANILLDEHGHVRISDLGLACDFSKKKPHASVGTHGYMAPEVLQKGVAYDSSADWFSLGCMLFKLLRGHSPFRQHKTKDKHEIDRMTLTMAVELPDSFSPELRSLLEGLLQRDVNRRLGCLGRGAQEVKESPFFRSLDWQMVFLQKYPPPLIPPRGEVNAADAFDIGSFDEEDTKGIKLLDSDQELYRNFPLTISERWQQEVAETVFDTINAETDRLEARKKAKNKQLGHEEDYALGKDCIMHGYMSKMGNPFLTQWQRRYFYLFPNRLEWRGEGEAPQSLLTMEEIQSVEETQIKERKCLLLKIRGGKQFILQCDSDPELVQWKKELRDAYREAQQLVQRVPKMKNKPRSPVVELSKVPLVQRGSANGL
Nature of the experiment: ADPGlo GRK2 Inhibition Assay (Example 8). Type of experiment: biochemical. The conditions noted are these: Enzyme Assay A, ADPGlo (Example 8); read-out: A: Enzymatic GRK2: IC50 (nM) (Example 8). Put shortly: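 GRK2 (15 nM 2× enzyme solution) was preincubated 15 min with compound, then reacted 180 min at room temperature with 2× mix of 20 μM ATP plus GRKtide in HEPES pH 7.5, MgCl2, Tween-20, DTT. ADP was detected by ADP-Glo luminescence. Percent inhibition was normalised to enzyme and no-enzyme controls, with dose-response curves from threefold dilutions starting at 100 μM.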
On the technique in general: ADP-Glo turns the ADP formed in a reaction into a luminescent signal.

For experiment [1], the system named is PAXF1657 control empty vector cell line. Nature of the experiment: 7-day proliferation assay, PAXF1657 control empty vector cell line (Example 9). It is filed as cell-based. The following applies: 168 h; Cell Line: PAXF1657 empty vector (EV) cell line; 7-day; read-out: C: 7-day proliferation assay: IC50 GeoMean. Put shortly: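 Isogenic PAXF1657 pairs differing in GRK2 level (stable cDNA overexpression or CRISPR knockout, each with matched control) are seeded and allowed to attach overnight. Inhibitors span 30 μM-0.0002 μM in 0.3% DMSO for 3 plus 4 days at 37° C, 5% CO2, with a medium change between.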

`Cn1c(CNc2cccc(C(=O)NCc3cccc(OCC(F)F)c3)c2)nnc1-c1ccncn1`: the results for the IC50 (on GRK2; in experiment [1]) were 43 nM and > 10000 nM, respectively.
In the same order, the values of `Cn1c(CNc2cccc(C(=O)NCc3cccc4c3OCCO4)c2)nnc1-c1ccncn1` are 15 nM and 2070 nM.
As to `Cc1ccnc(CNC(=O)c2cccc(NCc3nnc(-c4ccncn4)n3C)c2)c1`, the IC50 is 430 nM at GRK2 and > 10000 nM in experiment [1].
In the case of `Cn1c(CNc2cccc(C(=O)NCc3cccnc3)c2)nnc1-c1ccncn1`, the IC50 on GRK2 was 540 nM; in experiment [1] it was > 10000 nM.
For the compound `Cn1cc(C(NC(=O)c2cccc(NCc3nnc(-c4ccncn4)n3C)c2)c2ccccc2)cn1` (stereo not shown), the IC50 on GRK2 amounted to 41 nM; in experiment [1] it was 66.4 nM.
For `O=C(NCc1nccn1C(F)F)c1cccc(NCc2nnc(-c3ccncc3)[nH]2)c1`, in that order: 14 nM and 2880 nM.
For `Cc1ccnc(CNC(=O)c2cccc(NCc3nnc(-c4ccncc4)[nH]3)c2)n1`, in that order: 15 nM and > 10000 nM.
As to `CC(C)n1nccc1CNC(=O)c1cccc(NCc2nnc(-c3ccncc3)[nH]2)c1`, the IC50 at GRK2 was 20 nM; in experiment [1], > 10000 nM.
In the same order, the values of `O=C(NCc1cn[nH]c1C(F)F)c1cccc(NCc2nnc(-c3ccncc3)[nH]2)c1` are 19 nM and > 10000 nM.
Turning to `Cc1nc(C)c(CNC(=O)c2cccc(NCc3nnc(-c4ccncc4)[nH]3)c2)nc1C`, the IC50 was 28 nM on GRK2 and > 10000 nM in experiment [1].
In the same order, the values of `Cc1ncccc1CNC(=O)c1cccc(NCc2nnc(-c3ccncc3)[nH]2)c1` are 19 nM and > 10000 nM.
For `O=C(NCc1nccc(C(F)F)n1)c1cccc(NCc2nnc(-c3ccncc3)[nH]2)c1`, in that order: 27 nM and > 10000 nM.
For the compound `CCn1ncc(Cl)c1CNC(=O)c1cccc(NCc2nnc(-c3ccncc3)[nH]2)c1`, the IC50 at GRK2 is 12 nM; in experiment [1], 560 nM.
As to `O=C(NCc1ccccc1-n1cncn1)c1cccc(NCc2nnc(-c3ccncc3)[nH]2)c1`, the IC50 on GRK2 was 19 nM; in experiment [1], > 10000 nM.
In the same order, the values of `COc1cnccc1CNC(=O)c1cccc(NCc2nnc(-c3ccncc3)[nH]2)c1` are 26 nM and > 10000 nM.
`O=C(NC1(c2ccncn2)CC1)c1cccc(NCc2nnc(-c3ccncc3)[nH]2)c1`: the IC50 was 13 nM on GRK2 and > 10000 nM in experiment [1].
Turning to `CC(NC(=O)c1cccc(NCc2nnc(-c3ccncc3)[nH]2)c1)c1cnco1` (stereo not shown), the values for the IC50 (on GRK2; in experiment [1]) were 24 nM and > 10000 nM, respectively.
As for `Cc1cnc(C(C)NC(=O)c2cccc(NCc3nnc(-c4ccncc4)[nH]3)c2)o1` (stereo not shown), the IC50 at GRK2 is 16 nM; in experiment [1], > 10000 nM.
In the same order, the values of `O=C(NCc1nnc2n1CCCC2)c1cccc(NCc2nnc(-c3ccncc3)[nH]2)c1` are 48 nM and > 10000 nM.
As for `O=C(NCc1ccncc1)c1cccc(NCc2nnc(-c3ccncc3)[nH]2)c1`, the IC50 at GRK2 is 12 nM; in experiment [1], 5720 nM.
Regarding `CCc1nc(CNC(=O)c2cccc(NCc3nnc(-c4ccncc4)[nH]3)c2)c(C)o1`, the values for the IC50 (at GRK2; in experiment [1]) were 8.4 nM and 866 nM, respectively.
Consider `O=C(NCc1ncccn1)c1cccc(NCc2nnc(-c3ccncc3)[nH]2)c1`, for which the IC50 at GRK2 is 17 nM; in experiment [1], > 10000 nM.
In the same order, the values of `O=C(NCc1ncco1)c1cccc(NCc2nnc(-c3ccncc3)[nH]2)c1` are 25 nM and > 10000 nM.
In the same order, the values of `CCn1nc(C)c(CNC(=O)c2cccc(NCc3nnc(-c4ccncc4)[nH]3)c2)n1` are 18 nM and 3110 nM.
For `O=C(NCc1nncn1C1CC1)c1cccc(NCc2nnc(-c3ccncc3)[nH]2)c1`, in that order: 45 nM and > 10000 nM.
As for `COC[C@H](NC(=O)c1cccc(NCc2nnc(-c3ccncc3)[nH]2)c1)c1ccccn1`, the IC50 worked out at 11 nM on GRK2 and 405 nM in experiment [1].
